# In article PMC10987858 (Heliyon, 2024):
# Target: Bovine Serum Albumin (BSA) (Bos taurus, UniProt P02769)
# Assay: tryptophan fluorescence quenching titration
# Assay type: binding
# Conditions: 298 K; phosphate buffer, pH not given; 10 μM BSA stock; double-log
# Sequence of Bovine Serum Albumin (BSA) (P02769 25-607): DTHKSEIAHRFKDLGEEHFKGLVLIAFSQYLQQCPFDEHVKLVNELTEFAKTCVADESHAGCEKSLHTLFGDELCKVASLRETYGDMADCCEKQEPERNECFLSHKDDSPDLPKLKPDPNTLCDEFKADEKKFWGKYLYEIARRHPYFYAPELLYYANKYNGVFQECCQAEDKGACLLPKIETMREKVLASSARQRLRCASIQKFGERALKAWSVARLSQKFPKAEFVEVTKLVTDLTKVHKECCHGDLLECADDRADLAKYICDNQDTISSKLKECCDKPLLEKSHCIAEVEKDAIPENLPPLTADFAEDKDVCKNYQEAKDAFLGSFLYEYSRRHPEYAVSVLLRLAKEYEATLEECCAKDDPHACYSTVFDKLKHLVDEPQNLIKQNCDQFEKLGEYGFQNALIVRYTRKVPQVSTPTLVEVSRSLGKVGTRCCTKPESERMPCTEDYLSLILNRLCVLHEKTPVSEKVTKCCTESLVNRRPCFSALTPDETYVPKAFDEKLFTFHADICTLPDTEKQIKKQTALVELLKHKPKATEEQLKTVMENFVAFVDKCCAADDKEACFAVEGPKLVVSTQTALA
row,Structure (SMILES),Kb
1,"CC=NNC(=O)Cc1ccccc1 [EPAH, N′-ethylidene-2-phenylacetohydrazide]",2.47e+06 M⁻¹
2,"O=C(Cc1ccccc1)NN=Cc1ccco1 [FMPAH, N’-(furan-2-ylmethylene)-2-phenylacetohydrazide]",44500 M⁻¹
3,"O=C(Cc1ccccc1)NN=Cc1ccccc1O [HBPAH, N'-(2-hydroxybenzylidene)-2-phenylacetohydrazide]",683000 M⁻¹
4,"O=C(Cc1ccccc1)N/N=C/C=C/c1ccccc1 [PPAH, 2-Phenyl-N'-(3-phenylallylidene)acetohydrazide]",1.75e+08 M⁻¹
